Measurements: patent publication US11498929B2, “Chromenopyrimidine derivatives as phosphatidylinsitol phosphate kinase inhibitors” (Hibercell, Inc., priority 2019, dated 2022)

What was measured:
[1] = biological target: T1, PIP4K2 B (GST-tagged PIP4KtypeIIB) (Homo sapiens, UniProt P78356); assay: Kinase Assay - PIP4K2 B (inhibition of PIP4K2 B kinase assay); format: biochemical; conditions: compounds listed under IC50 bin headings
T1 construct: GST; made in house; host or cells: E. coli
T1 sequence (P78356 1-416): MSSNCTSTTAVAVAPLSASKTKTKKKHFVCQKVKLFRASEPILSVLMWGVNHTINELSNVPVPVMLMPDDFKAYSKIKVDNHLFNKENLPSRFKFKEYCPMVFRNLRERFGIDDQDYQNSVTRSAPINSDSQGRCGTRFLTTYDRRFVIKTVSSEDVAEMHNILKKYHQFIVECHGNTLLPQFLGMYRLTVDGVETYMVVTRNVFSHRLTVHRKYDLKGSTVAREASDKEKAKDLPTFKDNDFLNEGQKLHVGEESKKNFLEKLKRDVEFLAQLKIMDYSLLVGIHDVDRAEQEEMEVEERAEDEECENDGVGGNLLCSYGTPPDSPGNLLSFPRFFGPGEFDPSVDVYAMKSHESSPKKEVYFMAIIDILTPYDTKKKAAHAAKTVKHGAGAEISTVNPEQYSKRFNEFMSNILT
Text: GST tagged PIP4KtypeIIA and B enzymes were overexpressed in E. Coli and purified to >80% homogeneity. Phosphatidyl inositol-5-phosphate (PI5P, Cat. #850152, Avanti Polar Lipids Inc.) was used as the lipid substrate and phosphatidyl ethanolamine (DOPE 18:1, Cat. #850725, Avanti Polar Lipids Inc.) was used as the carrier lipid for assays. Ultrapure ATP and GTP was purchased from Bellbrooke Labs. ADP Glo reagents were obtained from Promega. Transcreener FI reagent was obtained from Bellbrooke labs.
GST-tagged PIP4KtypeIIB (3.4 uL, 2.77 mg/mL) was diluted to 5 mL using HNE buffer to yield 5× enzyme stock (25 nM)
Lipid Preparation: In a 10 mL pyrex glass vial, 1 ug of PI5P and 1 ug of DOPE were suspended in 2.5 mL of HEPES buffer mix and 2.5 mL of H:E buffer. The contents were mixed and sonicated for 3 min to yield a translucent lipid stock.
Compound Preparation: Compounds were stored as 5 mM stocks in neat DMSO as room temperature in glass vials. 5 mM stocks were diluted to 2 mM and then serially diluted (3×) in neat DMSO in 96 well polypropylene plates. From the serially diluted stocks, 3 uL was delivered into 250 uL of 25% DMSO (in water) to generate 5× compound stocks. Typically, the highest compound conc. was 24 uM.
The assay volume was kept at 25 uL. To each well of the reaction plate, 10 uL of lipid stock (1:1 ratio PI5P:DOPE) was delivered. This was followed by the addition of 5 uL of compound in 25% DMSO. Then, to each well, 5 uL of 25 nM (5×) typeIIB enzyme was delivered. The contents were mixed well and incubated for 1 h at 27 C. After 1 h, reaction was initiated by adding 5 uL of 500 uM GTP and the contents were mixed well with a multi-channel pipetteman. The final concentration of the reagents are as follows: 50 mM HEPES, pH 7.3, 10 mM MgCl2, 20 mM NaCl, 0.01% v/v triton-X100, 5% DMSO, 100 uM GTP, 80 uM (2 ug) PI5P, 2 ug DOPE, and 5 nM PIP4KIIB Typically, the highest conc. of compounds was 4.8 uM and the lowest conc. was 0.
After 2 h, the reaction was quenched by adding 25 uL of transcreener FI reagent. The contents were incubated at RT for 1 h and the Fluorescence (Ex:584 Em: 623) was read using Molecular Devices Paradigm plate reader. […] The blanks were averaged and subtracted from all other wells. Using a calibration curve, RFU was converted to uM GDP (product). IC50 was calculated by plotting the residual activity (expressed as % No inhibitor control) vs. log [Inh. conc.]

PIP4K2A = biological target: T2, PIP4K2A (Homo sapiens, UniProt P48426); assay: Kinase Assay - PIP4K2 A (inhibition of PIP4K2 A kinase assay); format: biochemical; conditions: compounds listed under IC50 bin headings
T2 construct: GST; made in house; host or cells: E. coli
T2 sequence (P48426 1-406): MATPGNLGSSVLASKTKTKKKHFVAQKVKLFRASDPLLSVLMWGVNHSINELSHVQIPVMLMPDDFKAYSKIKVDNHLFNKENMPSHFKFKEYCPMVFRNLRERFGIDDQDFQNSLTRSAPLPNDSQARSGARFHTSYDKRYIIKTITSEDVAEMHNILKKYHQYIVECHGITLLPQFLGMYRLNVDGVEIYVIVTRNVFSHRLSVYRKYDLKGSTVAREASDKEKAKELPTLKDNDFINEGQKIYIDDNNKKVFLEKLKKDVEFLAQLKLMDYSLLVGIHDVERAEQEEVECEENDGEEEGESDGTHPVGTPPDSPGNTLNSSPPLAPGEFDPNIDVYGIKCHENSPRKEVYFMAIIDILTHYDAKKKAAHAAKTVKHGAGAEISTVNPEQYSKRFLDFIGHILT
Experimental: Dilution series of the compounds were prepared in DMSO at 100 times the final assay concentration (n1=n0/3 in 10 points). The compounds were further diluted to three times the assay concentration in assay buffer (20 mM MOPS pH 7.2, 25 mM magnesium chloride, 0.005% Tween 20). 6 μL of the diluted compounds were added to a 384 well assay plate followed by 9 μL of a mix consisting of 4 nM PIP4K2A (full length protein, SignalChem) and 100 μM PI(5)P diC8 (Tebu-Bio). Enzyme and compounds were pre-incubated at room temperature for 15 minutes.
Then 3 μL of a solution containing 60 μM ATP (Promega) in assay buffer was added to the wells containing compound and enzyme and mixing was performed by pipetting several times. The reaction was incubated at room temperature for 1 h. Then 18 μL of ADP-Glo™ Reagent (Promega) was added to stop the kinase reaction and deplete the unconsumed ATP, mixing was performed by pipetting several times. The plate was incubated at room temperature for 40 minutes before addition of 36 μL of Kinase Detection Reagent (Promega) to convert ADP to ATP and introduce luciferase and luciferin to detect ATP. The reaction was incubated at room temperature for 40 minutes before the luminescence was measured in a in a Victor 3V 1420 multilabel counter (Perkin Elmer).
Percent inhibition of the compounds as compared to dimethyl sulfoxide treated control samples was calculated. Compound concentration versus percent inhibition were fitted to generate IC50 values. […]

MOLM-16 = MOLM-16 EC50 assay; format: cell-based; conditions: MOLM16

| IC50 [1] | IC50 (PIP4K2A) | EC50 (MOLM-16) | Compound |
| --- | --- | --- | --- |
| 1 to 10 nM | 1 to 10 nM | 100 to 1000 nM | CN1CCOc2ncc(Nc3ncc4c(n3)C(C)(C)Oc3cc(N5C(=O)CCC56CC6)ccc3-4)cc21 [Compound 26, 4-[5,5-dimethyl-3-({1-methyl-1H,2H,3H-pyrido[2,3-b][1,4]oxazin-7-yl}amino)-5H-chromeno[3,4-d]pyrimidin-8-yl]-4-azaspiro[2.4]heptan-5-one] |
| 10 to 100 nM | 1 to 10 nM | > 1000 nM | CC(=O)OC(C)(C)C(=O)N1CCOc2ncc(Nc3ncc4c(n3)C(C)(C)Oc3cc(-c5nocc5C)ccc3-4)cc21 [Compound 29, 1-(7-{[5,5-dimethyl-8-(4-methyl-1,2-oxazol-3-yl)-5H-chromeno[3,4-d]pyrimidin-3-yl]amino}-1H,2H,3H-pyrido[2,3-b][1,4]oxazin-1-yl)-2-methyl-1-oxopropan-2-yl acetate] |
| 10 to 100 nM | 10 to 100 nM | 10 to 100 nM | CC1(C)Oc2cc(N3CCCC3=O)ccc2-c2cnc(Nc3cncc(CNCCS(C)(=O)=O)c3)nc21 [Compound 31, 1-{3-[(5-{[(2-methanesulfonylethyl)amino]methyl}pyridin-3-yl)amino]-5,5-dimethyl-5H-chromeno[3,4-d]pyrimidin-8-yl}pyrrolidin-2-one] |
| 100 to 1000 nM | 10 to 100 nM | 10 to 100 nM | CCN(CC)CCN(C)c1cncc(Nc2ncc3c(n2)C(C)(C)Oc2cc(N4CCCC4=O)ccc2-3)c1 [Compound 32, 1-{3-[(5-{[2-(diethylamino)ethyl](methyl)amino}pyridin-3-yl)amino]-5,5-dimethyl-5H-chromeno[3,4-d]pyrimidin-8-yl}pyrrolidin-2-one] |
| 100 to 1000 nM | 10 to 100 nM | 10 to 100 nM | CN(C)CCOc1cncc(Nc2ncc3c(n2)C(C)(C)Oc2cc(N4CCCC4=O)ccc2-3)c1 [Compound 33, 1-[3-({5-[2-(dimethylamino)ethoxy]pyridin-3-yl}amino)-5,5-dimethyl-5H-chromeno[3,4-d]pyrimidin-8-yl]pyrrolidin-2-one] |
| > 1000 nM | 100 to 1000 nM | 100 to 1000 nM | CN1CCN(CC(=O)N(C)c2cncc(Nc3ncc4c(n3)C(C)(C)Oc3cc(N5CCCC5=O)ccc3-4)c2)CC1 [Compound 35, N-(5-{[5,5-dimethyl-8-(2-oxopyrrolidin-1-yl)-5H-chromeno[3,4-d]pyrimidin-3-yl]amino}pyridin-3-yl)-N-methyl-2-(4-methylpiperazin-1-yl)acetamide] |
| > 1000 nM | 100 to 1000 nM | 10 to 100 nM | CCN(CC)CCN1CCOc2ncc(Nc3ncc4c(n3)C(C)(C)Oc3cc(N5CCCC5=O)ccc3-4)cc21 [Compound 36, 1-[3-({1-[2-(diethylamino)ethyl]-1H,2H,3H-pyrido[2,3-b][1,4]oxazin-7-yl}amino)-5,5-dimethyl-5H-chromeno[3,4-d]pyrimidin-8-yl]pyrrolidin-2-one] |
